The text below walks through data of patent US11976083B2, “Inhibitors of peptidylarginine deiminases” (Gilead Sciences, Inc., priority 2020, dated 2024).

The term IC50 denotes the midpoint of a concentration-inhibition curve.

Each structure is given as a SMILES string.

In this assay the target is T1, human PAD4 (Homo sapiens, UniProt Q9UM07).
T1 construct: human PAD4 (NM_012387), A2-P663, was PCR amplified; His-SUMO (N, cleaved yes); made in house; host or cells: E. coli BL21(DE3)
T1 sequence (Q9UM07 2-663): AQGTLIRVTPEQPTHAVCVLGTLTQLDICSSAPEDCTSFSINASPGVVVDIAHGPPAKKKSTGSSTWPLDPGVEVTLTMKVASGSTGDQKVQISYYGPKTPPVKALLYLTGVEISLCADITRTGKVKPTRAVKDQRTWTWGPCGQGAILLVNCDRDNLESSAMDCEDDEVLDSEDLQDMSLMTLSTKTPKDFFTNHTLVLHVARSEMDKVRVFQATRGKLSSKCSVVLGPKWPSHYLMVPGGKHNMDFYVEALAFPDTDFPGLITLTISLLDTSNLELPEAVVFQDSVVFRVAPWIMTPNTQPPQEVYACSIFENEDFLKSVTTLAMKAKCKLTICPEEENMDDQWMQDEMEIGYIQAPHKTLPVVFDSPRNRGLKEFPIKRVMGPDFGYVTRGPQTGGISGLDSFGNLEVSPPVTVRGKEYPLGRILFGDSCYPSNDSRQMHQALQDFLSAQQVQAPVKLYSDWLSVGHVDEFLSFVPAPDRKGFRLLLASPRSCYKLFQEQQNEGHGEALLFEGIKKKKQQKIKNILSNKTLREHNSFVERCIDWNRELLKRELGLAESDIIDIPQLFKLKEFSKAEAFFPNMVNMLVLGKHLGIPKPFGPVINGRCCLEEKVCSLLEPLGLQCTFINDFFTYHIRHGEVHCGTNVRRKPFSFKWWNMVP
The assay can be described thus: In vitro PAD4 BAEE biochemical assay. Conditions: BAEE substrate 3 mM, 5 nM PAD4, 2 mM calcium chloride; geometric mean of multiple experiments. Put shortly: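 Assay was run at 25 °C using 3 mM BAEE and 5 nM human PAD4 after a 30 min compound preincubation; ammonia produced over 2 h was quantified by OPA-derived fluorescence. Full inhibition was defined by 50 µM BB-Cl-Amidine, and IC50 came from variable-slope nonlinear regression.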
As to `CO[C@@H]1CCN(C(=O)c2ccc3c(c2)nc(-c2cc4ccc5nc4n2CCCCC[C@@H]2C[C@H]2C(=O)N[C@@H]5C)n3C2CC2)C[C@@H]1N` [Example 691, (2~{R},5~{R},7~{R})-14-[5-[(3~{S},4~{R})-3-amino-4-methoxy-piperidine-1-carbonyl]-1-cyclopropyl-benzimidazol-2-yl]-2-methyl-3,13,19-triazatetracyclo[11.5.2.0^ {5,7}.0^{16,20}]icosa-1(19),14,16(20),17-tetraen-4-one], the IC50 is 0.033 µM.

Consider `COc1cc(C(=O)N2CC[C@@H](OC)[C@@H](N)C2)cc2nc(-c3cc4ccc5nc4n3CC(F)(F)CCC[C@@H]3C[C@H]3C(=O)N(C)[C@@H]5C)n(C)c12` [Example 692, (2~{R},5~{R},7~{R})-14-[5-[(3~{S},4~{R})-3-amino-4-methoxy-piperidine-1-carbonyl]-7-methoxy-1-methyl-benzimidazol-2-yl]-11,11-difluoro-2,3-dimethyl-3,13,19-triazatetracyclo[11.5.2.0^ {5,7}.0^{16,20}]icosa-1(19),14,16(20),17-tetraen-4-one], for which the IC50 was 0.027 µM.

On to `CO[C@@H]1CCN(C(=O)c2ccc3c(c2)nc(-c2cc4ccc5nc4n2CCCCCc2nc(Cl)ccc2C(=O)N[C@@H]5C)n3C2CC2)C[C@@H]1N` [Example 693, (2~{R})-17-[5-[(3~{S},4~ {R})-3-amino-4-methoxy-piperidine-1-carbonyl]-1-cyclopropyl-benzimidazol-2-yl]-8-chloro-2-methyl-3,9,16,22-tetrazatetracyclo [14.5.2.0^{5,10}.0^ {19,23}]tricosa-1(22), 5(10),6,8,17,19(23), 20-heptaen-4-one], for which the IC50 turned out to be 0.018 µM.

`COc1cc(C(=O)N2CC[C@@H](OC)[C@@H](N)C2)cc2nc(-c3cc4ccc5nc4n3CCCCC[C@H]3C(F)(F)[C@]3(C)C(=O)N[C@@H]5C)n(C)c12` [Example 694, (2~{R},5~{S},7~{R})-14-[5-[(3~{S},4~{R})-3-amino-4-methoxy-piperidine-1-carbonyl]-7-methoxy-1-methyl-benzimidazol-2-yl]-6,6-difluoro-2,5-dimethyl-3,13,19-triazatetracyclo[11.5.2.0^ {5,7}.0^{16,20}]icosa-1(19), 14,16(20),17-tetraen-4-one]: the IC50 was found to be 0.268 µM.

For the molecule `COc1cc(C(=O)N2CC[C@@H](OC)[C@@H](N)C2)cc2nc(-c3cc4ccc5nc4n3CCCCC[C@@H]3C[C@@]3(F)C(=O)N[C@@H]5C)n(C)c12` [Example 695, (2~{R},5~{S},7~{R})-14-[5-[(3~{S},4~{R})-3-amino-4-methoxy-piperidine-1-carbonyl]-7-methoxy-1-methyl-benzimidazol-2-yl]-5-fluoro-2-methyl-3,13,19-triazatetracyclo[11.5.2.0^ {5,7}.0^{16,20}]icosa-1(19), 14,16(20),17-tetraen-4-one], the 50% inhibitory concentration (IC50) is 0.057 µM.

As to `CO[C@@H]1CCN(C(=O)c2ccc3c(c2)nc(-c2cc4ccc5nc4n2CCCCCc2ccnc(C)c2C(=O)N[C@@H]5C)n3C2CC2)C[C@@H]1N` [Example 696, (2~{R})-17-[5-[(3~{S}, 4~{R})-3-amino-4-methoxy-piperidine-1-carbonyl]-1-cyclopropyl-benzimidazol-2-yl]-2,6-dimethyl-3,7,16,22-tetrazatetracyclo [14.5.2.0^{5,10}.0^{19,23}] tricosa-1(22),5(10), 6,8,17,19(23),20-heptaen-4-one], the IC50 is 0.048 µM.

Regarding `COc1cc(C(=O)N2CC[C@@H](OC)[C@@H](N)C2)cc2nc(-c3cc4ccc5nc4n3CCCCCc3ccnc(C)c3C(=O)N[C@@H]5C)n(C)c12` [Example 697, (2~{R})-17-[5-[(3~{S}, 4~{R})-3-amino-4-methoxy-piperidine-1-carbonyl]-7-methoxy-1-methyl-benzimidazol-2-yl]-2,6-dimethyl-3,7,16,22-tetrazatetracyclo[14.5.2.0^ {5,10}.0^{19,23}] tricosa-1(22),5(10),6,8,17, 19(23),20-heptaen-4-one], the IC50 came out at 0.074 µM.

In the case of `CO[C@@H]1CCN(C(=O)c2cc(F)c3c(c2)nc(-c2cc4ccc5nc4n2CCCCCc2ccnc(C)c2C(=O)N[C@@H]5C)n3C2CC2)C[C@@H]1N` [Example 698, (2~{R})-17-[5-[(3~{S),4~ {R})-3-amino-4-methoxy-piperidine-1-carbonyl]-1-cyclopropyl-7-fluoro-benzimidazol-2-yl]-2,6-dimethyl-3,7,16,22-tetrazatetracyclo[14.5.2.0^ {5,10).0^{19,23}]tricosa-1(22),5(10),6,8,17,19(23),20-heptaen-4-one], the IC50 was 0.068 µM.

`COc1cc(C(=O)N2CC[C@@H](OC)[C@@H](N)C2)cc2nc(-c3cc4ccc5nc4n3CCCCCCC[C@@H](C(F)(F)F)N[C@@H]5C)n(C)c12` [Example 699, [(3~{S},4~{R})-3-amino-4-methoxy-1-piperidyl]-[7-methoxy-1-methyl-2-[(9~{S},11~ {R})-11-methyl-9-(trifluoromethyl)-1,10,19-triazatricyclo[10.5.2.0^ {15,18}]nonadeca-12(19),13,15(18),16-tetraen-17-yl]benzimidazol-5-yl] methanone]: the IC50 turned out to be 0.64 µM.

`CO[C@@H]1CCN(C(=O)c2cc(F)c3c(c2)nc(-c2cc4ccc5nc4n2CC(F)(F)CCC[C@]2(F)C[C@H]2C(=O)N[C@@H]5C)n3C2CC2)C[C@@H]1N` [Example 700, (2~{R},5~{S},7~{S})-14-[5-[(3~{S},4~{R})-3-amino-4-methoxy-piperidine-1-carbonyl]-1-cyclopropyl-7-fluoro-benzimidazol-2-yl]-7,11,11-trifluoro-2-methyl-3,13,19-triazatetracyclo[11.5.2.0^ {5,7}.0^{16,20}]icosa-1(19),14,16(20),17-tetraen-4-one]: the IC50 amounted to 0.022 µM.

For `C[C@@H]1[C@H](N)CCCN1C(=O)c1cc(F)c2c(c1)nc(-c1cc3ccc4nc3n1CC(F)(F)CCC[C@]1(F)C[C@H]1C(=O)N[C@@H]4C)n2C1CC1` [Example 701, (2~{R},5~{S},7~{S})-14-[5-[(2~{R},3~{R})-3-amino-2-methyl-piperidine-1-carbonyl]-1-cyclopropyl-7-fluoro-benzimidazol-2-yl]-7,11,11-trifluoro-2-methyl-3,13,19-triazatetracyclo[11.5.2.0^ {5,7}.0^{16,20}]icosa-1(19),14,16(20),17-tetraen-4-one], the IC50 came out at 0.005 µM.

For `COc1cc(C(=O)N2CC[C@@H](OC)[C@@H](N)C2)cc2nc(-c3cc4ccc5nc4n3CC(F)(F)CCC[C@]3(F)C[C@H]3C(=O)N[C@@H]5C)n(C)c12` [Example 702, (2~{R},5~{S},7~{S})-14-[5-[(3~{S},4~{R})-3-amino-4-methoxy-piperidine-1-carbonyl]-7-methoxy-1-methyl-benzimidazol-2-yl]-7,11,11-trifluoro-2-methyl-3,13,19-triazatetracyclo[11.5.2.0^ {5,7}.0^{16,20}]icosa-1(19),14,16(20),17-tetraen-4-one], the IC50 was 0.021 µM.

Regarding `COc1cc(C(=O)N2CCC[C@@H](N)[C@H]2C)cc2nc(-c3cc4ccc5nc4n3CC(F)(F)CCC[C@]3(F)C[C@H]3C(=O)N[C@@H]5C)n(C)c12` [Example 703, (2~{R},5~{S},7~{S})-14-[5-[(2~{R},3~{R})-3-amino-2-methyl-piperidine-1-carbonyl]-7-methoxy-1-methyl-benzimidazol-2-yl]-7,11,11-trifluoro-2-methyl-3,13,19-triazatetracyclo[11.5.2.0^ {5,7}.0^{16,20}]icosa-1(19), 14,16(20),17-tetraen-4-one], the IC50 came out at 0.011 µM.
